Laboratory results: PubChem BioAssay (NCI)
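Abbreviation: GI50, concentration required for 50% inhibition of growth. At the TGI there is no net growth.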

Key:
Experiment in all cases: DTP human tumour cell line panel, 384-well format
NCI-H226 lung = system: NCI-H226 lung
SK-MEL-28 melanoma = system: SK-MEL-28 melanoma
EKVX NSCLC = system: EKVX NSCLC
UO-31 renal = system: UO-31 renal
NCI-H522 lung = system: NCI-H522 lung
SNB-75 CNS = system: SNB-75 CNS
NCI-H322M lung = system: NCI-H322M lung
SK-MEL-2 melanoma = system: SK-MEL-2 melanoma
HL-60(TB) leukemia = system: HL-60(TB) leukemia
HOP-92 NSCLC = system: HOP-92 NSCLC
OVCAR-5 ovarian = system: OVCAR-5 ovarian
ACHN renal = system: ACHN renal
K-562 leukemia = system: K-562 leukemia
SW-620 colon = system: SW-620 colon
786-0 renal = system: 786-0 renal
IGROV1 ovarian = system: IGROV1 ovarian
MOLT-4 leukemia = system: MOLT-4 leukemia
RXF 393 renal = system: RXF 393 renal
SK-OV-3 ovarian = system: SK-OV-3 ovarian
OVCAR-3 ovarian = system: OVCAR-3 ovarian
NCI-H460 NSCLC = system: NCI-H460 NSCLC
A498 renal = system: A498 renal
SN12C renal = system: SN12C renal
BT-549 breast = system: BT-549 breast
HS 578T breast = system: HS 578T breast
CCRF-CEM leukemia = system: CCRF-CEM leukemia
MDA-MB-468 breast = system: MDA-MB-468 breast
UACC-62 melanoma = system: UACC-62 melanoma
PC-3 prostate = system: PC-3 prostate
HCT-116 colon = system: HCT-116 colon
SR leukemia = system: SR leukemia
HCT-15 colon = system: HCT-15 colon
MDA-MB-231 breast = system: MDA-MB-231 breast
COLO 205 colon = system: COLO 205 colon
SNB-19 CNS = system: SNB-19 CNS
U251 glioblastoma = system: U251 glioblastoma
SF-539 CNS = system: SF-539 CNS
HCC-2998 colon = system: HCC-2998 colon
RPMI-8226 leukemia = system: RPMI-8226 leukemia
UACC-257 melanoma = system: UACC-257 melanoma
CAKI-1 renal = system: CAKI-1 renal
NCI/ADR-RES ovarian = system: NCI/ADR-RES ovarian
M14 melanoma = system: M14 melanoma
SK-MEL-5 melanoma = system: SK-MEL-5 melanoma
MALME-3M melanoma = system: MALME-3M melanoma
SF-268 CNS = system: SF-268 CNS
KM12 colon = system: KM12 colon

O=C(CCCCCCC(=O)N/N=C/c1ccc(N(c2ccccc2)c2ccccc2)cc1)NO
GI50 (NCI-H226 lung): 187 nM | TGI (NCI-H226 lung): 365 nM | GI50 (SK-MEL-28 melanoma): 2890 nM | TGI (SK-MEL-28 melanoma): 8290 nM | GI50 (EKVX NSCLC): 2620 nM | TGI (EKVX NSCLC): 6520 nM | GI50 (UO-31 renal): 1730 nM | TGI (UO-31 renal): 8200 nM | GI50 (NCI-H522 lung): 1440 nM | TGI (NCI-H522 lung): 4340 nM | GI50 (SNB-75 CNS): 2820 nM | TGI (SNB-75 CNS): 7800 nM | GI50 (NCI-H322M lung): 3110 nM | TGI (NCI-H322M lung): 9540 nM | GI50 (SK-MEL-2 melanoma): 1450 nM | TGI (SK-MEL-2 melanoma): 2830 nM | GI50 (HL-60(TB) leukemia): 1280 nM | TGI (HL-60(TB) leukemia): 2560 nM | GI50 (HOP-92 NSCLC): 1050 nM | TGI (HOP-92 NSCLC): 2620 nM | GI50 (OVCAR-5 ovarian): 665 nM | TGI (OVCAR-5 ovarian): 2090 nM | GI50 (ACHN renal): 1790 nM | TGI (ACHN renal): 3590 nM | GI50 (K-562 leukemia): 1420 nM | TGI (K-562 leukemia): 2750 nM | GI50 (SW-620 colon): 1420 nM | TGI (SW-620 colon): 2790 nM | GI50 ([…]-0 renal): 1840 nM | TGI (786-0 renal): 3820 nM | GI50 (IGROV1 ovarian): 413 nM | TGI (IGROV1 ovarian): 1460 nM | GI50 (MOLT-4 leukemia): 471 nM | TGI (MOLT-4 leukemia): 1510 nM | GI50 (RXF 393 renal): 790 nM | TGI (RXF 393 renal): 2100 nM | GI50 (SK-OV-3 ovarian): 1370 nM | TGI (SK-OV-3 ovarian): 2830 nM | GI50 (OVCAR-3 ovarian): 673 nM | TGI (OVCAR-3 ovarian): 1900 nM | GI50 (NCI-H460 NSCLC): 1160 nM | TGI (NCI-H460 NSCLC): 2450 nM | GI50 (A498 renal): 146 nM | TGI (A498 renal): 283 nM | GI50 (SN12C renal): 1830 nM | TGI (SN12C renal): 3620 nM | GI50 (BT-549 breast): 2420 nM | TGI (BT-549 breast): 4880 nM | GI50 (HS 578T breast): 2110 nM | TGI (HS 578T breast): 4370 nM | GI50 (CCRF-CEM leukemia): 979 nM | TGI (CCRF-CEM leukemia): 2260 nM | GI50 (MDA-MB-468 breast): 137 nM | TGI (MDA-MB-468 breast): 277 nM | GI50 (UACC-62 melanoma): 397 nM | TGI (UACC-62 melanoma): 1440 nM | GI50 (PC-3 prostate): 1770 nM | TGI (PC-3 prostate): 4330 nM | GI50 (HCT-116 colon): 702 nM | TGI (HCT-116 colon): 1890 nM | GI50 (SR leukemia): 144 nM | TGI (SR leukemia): 321 nM | GI50 (HCT-15 colon): 2800 nM | TGI (HCT-15 colon): 7260 nM | GI50 (MDA-MB-231 breast): 1900 nM | TGI (MDA-MB-231 breast): 4600 nM | GI50 (COLO 205 colon): 2120 nM | TGI (COLO 205 colon): 3850 nM | GI50 (SNB-19 CNS): 2780 nM | TGI (SNB-19 CNS): 7200 nM | GI50 (U251 glioblastoma): 1610 nM | TGI (U251 glioblastoma): 3070 nM | GI50 (SF-539 CNS): 2150 nM | TGI (SF-539 CNS): 4880 nM | GI50 (HCC-2998 colon): 1840 nM | TGI (HCC-2998 colon): 3870 nM | GI50 (RPMI-8226 leukemia): 260 nM | TGI (RPMI-8226 leukemia): 574 nM | GI50 (UACC-257 melanoma): 589 nM | TGI (UACC-257 melanoma): 1310 nM | GI50 (CAKI-1 renal): 256 nM | TGI (CAKI-1 renal): 1140 nM | GI50 (NCI/ADR-RES ovarian): 4360 nM | TGI (NCI/ADR-RES ovarian): 15900 nM | GI50 (M14 melanoma): 2700 nM | TGI (M14 melanoma): 7060 nM | GI50 (SK-MEL-5 melanoma): 1630 nM | TGI (SK-MEL-5 melanoma): 3100 nM | GI50 (MALME-3M melanoma): 2070 nM | TGI (MALME-3M melanoma): 4620 nM | GI50 (SF-268 CNS): 1990 nM | TGI (SF-268 CNS): 3940 nM | GI50 (KM12 colon): 2630 nM | TGI (KM12 colon): 9170 nM

CS(=O)(=O)N1CCN(Cc2cc3nc(-c4cccc5[nH]ncc45)nc(N4CCOCC4)c3s2)CC1
GI50 (NCI-H226 lung): 648 nM | TGI (NCI-H226 lung): 4900 nM | GI50 (SK-MEL-28 melanoma): 202 nM | TGI (SK-MEL-28 melanoma): 4180 nM | GI50 (EKVX NSCLC): 185 nM | TGI (EKVX NSCLC): 2700 nM | GI50 (UO-31 renal): 478 nM | TGI (UO-31 renal): 9800 nM | GI50 (NCI-H522 lung): 391 nM | TGI (NCI-H522 lung): 7580 nM | GI50 (SNB-75 CNS): 102 nM | TGI (SNB-75 CNS): 533 nM | GI50 (NCI-H322M lung): 442 nM | TGI (NCI-H322M lung): 5320 nM | GI50 (SK-MEL-2 melanoma): 7040 nM | TGI (SK-MEL-2 melanoma): > 100000 nM | GI50 (HL-60(TB) leukemia): 46.3 nM | TGI (HL-60(TB) leukemia): 593 nM | GI50 (HOP-92 NSCLC): 202 nM | TGI (HOP-92 NSCLC): 1490 nM | GI50 (OVCAR-5 ovarian): 553 nM | TGI (OVCAR-5 ovarian): > 100000 nM | GI50 (ACHN renal): 460 nM | TGI (ACHN renal): 6920 nM | GI50 (K-562 leukemia): 5480 nM | TGI (K-562 leukemia): > 100000 nM | GI50 (SW-620 colon): 2420 nM | TGI (SW-620 colon): > 100000 nM | GI50 ([…]-0 renal): 492 nM | TGI (786-0 renal): 2770 nM | GI50 (IGROV1 ovarian): 38.6 nM | TGI (IGROV1 ovarian): 215 nM | GI50 (MOLT-4 leukemia): 82.2 nM | TGI (MOLT-4 leukemia): 363 nM | GI50 (RXF 393 renal): 152 nM | TGI (RXF 393 renal): 638 nM | GI50 (SK-OV-3 ovarian): 169 nM | TGI (SK-OV-3 ovarian): 1620 nM | GI50 (OVCAR-3 ovarian): 280 nM | TGI (OVCAR-3 ovarian): 4390 nM | GI50 (NCI-H460 NSCLC): 206 nM | TGI (NCI-H460 NSCLC): 47900 nM | GI50 (A498 renal): 290 nM | TGI (A498 renal): 1590 nM | GI50 (SN12C renal): 328 nM | TGI (SN12C renal): 67200 nM | GI50 (BT-549 breast): 202 nM | TGI (BT-549 breast): 2030 nM | GI50 (HS 578T breast): 295 nM | TGI (HS 578T breast): 2150 nM | GI50 (CCRF-CEM leukemia): 1800 nM | TGI (CCRF-CEM leukemia): 6980 nM | GI50 (MDA-MB-468 breast): 127 nM | TGI (MDA-MB-468 breast): 685 nM | GI50 (UACC-62 melanoma): 238 nM | TGI (UACC-62 melanoma): 1930 nM | GI50 (PC-3 prostate): 165 nM | TGI (PC-3 prostate): 7730 nM | GI50 (HCT-116 colon): 1930 nM | TGI (HCT-116 colon): > 100000 nM | GI50 (SR leukemia): 1530 nM | TGI (SR leukemia): 4010 nM | GI50 (HCT-15 colon): 708 nM | TGI (HCT-15 colon): 24100 nM | GI50 (MDA-MB-231 breast): 2130 nM | TGI (MDA-MB-231 breast): > 100000 nM | GI50 (COLO 205 colon): 480 nM | TGI (COLO 205 colon): 34200 nM | GI50 (SNB-19 CNS): 4380 nM | TGI (SNB-19 CNS): > 100000 nM | GI50 (U251 glioblastoma): 2340 nM | TGI (U251 glioblastoma): > 100000 nM | GI50 (SF-539 CNS): 446 nM | TGI (SF-539 CNS): > 100000 nM | GI50 (HCC-2998 colon): 723 nM | TGI (HCC-2998 colon): 14300 nM | GI50 (RPMI-8226 leukemia): 393 nM | TGI (RPMI-8226 leukemia): 1670 nM | GI50 (UACC-257 melanoma): 2330 nM | TGI (UACC-257 melanoma): > 100000 nM | GI50 (CAKI-1 renal): 260 nM | TGI (CAKI-1 renal): 6810 nM | GI50 (NCI/ADR-RES ovarian): 1700 nM | TGI (NCI/ADR-RES ovarian): 49900 nM | GI50 (M14 melanoma): 916 nM | TGI (M14 melanoma): > 100000 nM | GI50 (SK-MEL-5 melanoma): 795 nM | TGI (SK-MEL-5 melanoma): 8530 nM | GI50 (MALME-3M melanoma): 223 nM | TGI (MALME-3M melanoma): 3030 nM | GI50 (SF-268 CNS): 1510 nM | TGI (SF-268 CNS): 23300 nM | GI50 (KM12 colon): 888 nM | TGI (KM12 colon): > 100000 nM
